The conditions of this experiment: pH 7.4.
As for `CC(C)[C@H]1C(=O)O[C@H](C(C)C)C(=O)N(C)[C@@H](C(C)C)C(=O)O[C@H](C(C)C)C(=O)N(C)[C@@H](C(C)C)C(=O)O[C@H](C(C)C)C(=O)N1C` [ENN B], the “critical pressure of insertion, Cardiolipin” value (from here on “critical pressure of insertion”) amounted to 33.29 mN/m.

As for `CC[C@H](C)[C@H]1C(=O)O[C@H](C(C)C)C(=O)N(C)[C@@H]([C@@H](C)CC)C(=O)O[C@H](C(C)C)C(=O)N(C)[C@@H]([C@@H](C)CC)C(=O)O[C@H](C(C)C)C(=O)N1C` [ENN A], the “critical pressure of insertion” value is listed as 49.72 mN/m.

Take `CC[C@H](C)[C@H]1C(=O)O[C@H](C(C)C)C(=O)N(C)[C@@H](C(C)C)C(=O)O[C@H](C(C)C)C(=O)N(C)[C@@H](C(C)C)C(=O)O[C@H](C(C)C)C(=O)N1C` [ENN B1]: the “critical pressure of insertion” value stood at 43.51 mN/m.

As to `CC[C@H](C)[C@H]1C(=O)O[C@H](C(C)C)C(=O)N(C)[C@@H]([C@@H](C)CC)C(=O)O[C@H](C(C)C)C(=O)N(C)[C@@H](C(C)C)C(=O)O[C@H](C(C)C)C(=O)N1C` [ENN A1], the “critical pressure of insertion” value was determined as 48.57 mN/m.

For `CC(C)[C@H]1OC(=O)[C@H](Cc2ccccc2)N(C)C(=O)[C@@H](C(C)C)OC(=O)[C@H](Cc2ccccc2)N(C)C(=O)[C@@H](C(C)C)OC(=O)[C@H](Cc2ccccc2)N(C)C1=O` [BEA, Beauvericin], the “critical pressure of insertion” value was “--”.

The record behind these values is PMC6784244 (Toxins, 2019).
